Consider 2 molecules from US7422846B2, “Natural ligand for orphan G protein coupled receptor GPR86 and methods of use” (Euroscreen S.A, priority 2001, dated 2008).

The EC50 is the concentration at which the effect is half-maximal.

The target in this assay is T1, GPR86 (P2Y13) human receptor (Homo sapiens, UniProt Q9BPV8, T179M).
T1 sequence (Q9BPV8 22-354 T179M): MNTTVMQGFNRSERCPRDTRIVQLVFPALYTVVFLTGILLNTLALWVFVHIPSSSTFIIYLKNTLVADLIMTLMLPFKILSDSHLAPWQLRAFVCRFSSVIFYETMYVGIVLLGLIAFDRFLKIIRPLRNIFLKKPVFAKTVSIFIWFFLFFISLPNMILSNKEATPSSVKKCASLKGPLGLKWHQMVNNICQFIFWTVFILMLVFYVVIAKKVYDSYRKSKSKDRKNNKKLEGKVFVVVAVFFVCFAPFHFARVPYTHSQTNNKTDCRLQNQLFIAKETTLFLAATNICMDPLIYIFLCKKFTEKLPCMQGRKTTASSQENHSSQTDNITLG
Nature of the assay: IP3 accumulation in 1321N1 cells (AG32) expressing GPR86 (P2Y13) together with Gα16. Type of assay: cell-based. The arrangement: expressed in transfected cells; host or cells: 1321N1 astrocytoma clone AG32 (stably expressing Gα16 from pERAEQ2), G418-selected. Conditions: for EC50: 1321N1 cells expressing GPR86 and Gα16, 30 s, mean±S.D. of three independent experiments, read-out: EC50, IP3 accumulation. As to the method: Cells of the invention, for example, 1321N1 cells, are labelled for 24 hours with 10 μCi/ml [^3H] inositol in inositol free DMEM containing 5% FCS, antibiotics, amphotericin, sodium pyruvate and 400 μg/ml G418. Cells are incubated for 2 h in Krebs-Ringer Hepes (KRH) buffer of the following composition (124 mM NaCl, 5 mM KCl, 1.25 mM MgSO4, 1.45 mM CaCl2, 1.25 mM KH2PO4, 25 mM Hepes (pH: 7.4) and 8 mM glucose). The cells are then challenged with various nucleotides for 30 s. The incubation is stopped by the addition of an ice cold 3% perchloric acid solution. IP are extracted and separated on Dowex columns as previously described (25). 2MeSATP and ATP solutions (1 mM) are treated at room temperature with 20 units/ml CPK and 10 Mm cp for 90 min to circumvent problems arising from the contamination and degradation of triphosphate nucleotide solutions.
CHO-K1 and 1321N1 cells were transfected with the recombinant GPR86-pEFIN5 plasmid or with the plasmid alone using the FuGENE™6 transfection reagent (Roche Molecular Biochemicals). A clone called AG32 corresponding to 1321N1 cells previously transfected with pERAEQ2 plasmid encoding Gα16 (provided by Euroscreen), was transfected. The CHO-K1 and 1321N1 transfected cells were selected with 400 μg/ml G418 in complete medium (10% FBS, 100 units/ml penicillin, 100 μg/ml streptomycin and 2.5 μg/ml amphotericin B in respectively Ham's F12 or DMEM (Dulbecco's modified Eagle's) medium) two days after transfection and maintained in the same medium. The AG32 cells were maintained in the same DMEM complete medium supplemented with 500 μg/ml zeocin.
The pool of G418-resistant clones was tested for its functional IP3 response to several nucleotides, according to the method described above. The cells were challenged by various nucleotides at a concentration of 100 μM for 30 s: ATP, ADP, UTP, UDP, ITP, IDP, TDP.
Concentration-action curves for ADP, 2MeSADP and ADPβS. […] 1321N1 transfected cells were incubated in the presence of various concentrations of ADP, 2MeSADP and ADPβS for 30 s. The data represent the mean±S.D. of triplicate experimental points obtained in one representative experiment of three.
AG32 cells were seeded (200,000 cells per dish) on 35 mm (diameter) Petri dishes and labeled for 24 h with 5 μCi/ml [3H]-myoinositol in inositol free DMEM containing 5% fetal calf serum, antibiotics, amphotericin, sodium pyruvate, and 400 μg/ml of G418. Cells were incubated for 2 h in Krebs-Ringer Hepes (KRH) buffer (124 mM NaCl, 5 mM KCl, 1.25 mM MgSO4, 1.45 mM CaCl2, 1.25 mM KH2PO4, 25 mM Hepes (pH 7.4) and 8 mM D-glucose). The cells were then incubated in presence of ADP, ATP or 2MeSATP for 30 s. The incubation was stopped by the addition of 1 ml of an ice-cold 3% perchloric acid solution. Prior to the stimulation, ATP and 2MeSATP (1 mM solutions) were incubated for 90 min at room temperature with 20 units/ml creatine phosphokinase (CPK) and 10 mM creatine phosphate (CP). The reaction was stopped by addition of 10 mM iodoacetamide.
AG32 cells were seeded (200,000 cells per dish) on 35 mm (diameter) Petri dishes and labeled for 24 h with 5 μCi/ml [^3H]-myoinositol in inositol free DMEM containing 5% fetal calf serum, antibiotics, amphotericin, sodium pyruvate, and 400 μg/ml of G418. Cells were incubated for 2 h in Krebs-Ringer Hepes (KRH) buffer (124 mM NaCl, 5 mM KCl, 1.25 mM MgSO4, 1.45 mM CaCl2, 1.25 mM KH2PO4, 25 mM Hepes (pH 7.4) and 8 mM D-glucose). The cells were then incubated in presence of two different concentrations (100 nM and 10 μM) of ADP or ApnA (n=3-6) for 30 s. The incubation was stopped by the addition of 1 ml of an ice-cold 3% perchloric acid solution.
AG32 cells were seeded (200,000 cells per dish) on 35 mm (diameter) Petri dishes and labeled for 24 h with 5 μCi/ml [^3H]-myoinositol in inositol free DMEM containing 5% fetal calf serum, antibiotics, amphotericin, sodium pyruvate, and 400 μg/ml of G418.

Each structure is given as a SMILES string.

`CSc1nc(N)c2ncn([C@@H]3O[C@H](COP(=O)(O)OP(=O)(O)O)[C@@H](O)[C@H]3O)c2n1` [2MeSADP, 2-methylthio-ADP]: the EC50 worked out at 14.2 ± 3 nM.

For `Nc1ncnc2c1ncn2[C@@H]1O[C@H](COP(=O)(O)OP(=O)(O)O)[C@@H](O)[C@H]1O` [ADP], the EC50 was 11.4 ± 2.2 nM. Also, where the note is “100 μM for 30 s, pool of G418-resistant clones expressing GPR86 and Gα16”, the “IP3 response to nucleotides” value is given as “induced an IP3 response”.
